Read-outs that look alike come from different tables or passages of the source.
Columns and labels:
M1 muscarinic receptor = molecular target: T1, M1 muscarinic receptor (Homo sapiens, UniProt P11229); assay: Functional mobilization of intracellular calcium (FLIPR) in M1-CHO cells; assay type: cell-based; details: for M1 Activity: modulating M1 receptor
T1 construct: expressed in transfected cells; host or cells: CHO (M1-CHO)
T1 sequence (P11229 1-460): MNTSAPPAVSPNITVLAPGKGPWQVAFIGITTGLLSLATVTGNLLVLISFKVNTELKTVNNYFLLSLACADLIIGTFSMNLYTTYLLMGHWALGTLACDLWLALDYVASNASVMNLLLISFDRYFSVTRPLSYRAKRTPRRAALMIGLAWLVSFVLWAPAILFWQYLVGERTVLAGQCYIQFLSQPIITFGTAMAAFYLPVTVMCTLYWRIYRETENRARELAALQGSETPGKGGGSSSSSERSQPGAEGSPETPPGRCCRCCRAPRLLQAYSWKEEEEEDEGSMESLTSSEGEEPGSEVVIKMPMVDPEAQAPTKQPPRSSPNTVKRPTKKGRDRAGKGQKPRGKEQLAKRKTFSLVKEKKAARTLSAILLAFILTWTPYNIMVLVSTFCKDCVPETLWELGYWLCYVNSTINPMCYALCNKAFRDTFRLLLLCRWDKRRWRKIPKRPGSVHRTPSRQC
Outline: (§1)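 Steps: seed M1- or M4-CHO cells 18-24 hrs ahead; load calcium dye with 1 mM probenecid; add test compound (0.5% DMSO final), either alone for agonism or 15 min before EC80 carbachol for inhibition; record FLIPR fluorescence for 60 sec.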

M4 muscarinic receptor = molecular target: T2, M4 muscarinic receptor (Homo sapiens, UniProt P08173); assay: Functional mobilization of intracellular calcium (FLIPR) in M4-CHO cells; assay type: cell-based; details: for M4 Activity: modulating M4 receptor
T2 construct: expressed in transfected cells; host or cells: CHO (M4-CHO)
T2 sequence (P08173 1-479): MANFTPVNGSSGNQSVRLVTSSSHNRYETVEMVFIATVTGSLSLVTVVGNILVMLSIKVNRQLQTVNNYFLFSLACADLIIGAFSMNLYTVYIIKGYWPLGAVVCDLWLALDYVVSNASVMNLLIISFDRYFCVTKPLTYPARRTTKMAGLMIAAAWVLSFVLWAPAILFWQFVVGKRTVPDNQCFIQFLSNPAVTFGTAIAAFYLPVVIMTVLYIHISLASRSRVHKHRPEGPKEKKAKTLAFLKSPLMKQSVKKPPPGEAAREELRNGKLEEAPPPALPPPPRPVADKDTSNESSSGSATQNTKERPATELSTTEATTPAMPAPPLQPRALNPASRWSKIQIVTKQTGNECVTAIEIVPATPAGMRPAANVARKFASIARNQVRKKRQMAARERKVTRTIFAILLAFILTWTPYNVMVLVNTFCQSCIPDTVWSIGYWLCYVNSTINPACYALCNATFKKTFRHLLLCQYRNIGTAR
Outline: as §1

[1] = M1-CHO cells, calcium mobilization (FLIPR)
[2] = M1-CHO cells, calcium mobilization (FLIPR), read-out: M1 Efficacy
[3] = M4-CHO cells, calcium mobilization (FLIPR)
[4] = M4-CHO cells, calcium mobilization (FLIPR), read-out: M4 Efficacy
[5] = Table 4, 100% efficacy is the maximum response obtained with the Carbachol control

SMILES | EC50 (M1 muscarinic receptor; [1]) [nM] | Emax (M1 muscarinic receptor; [2]) [%] | EC50 (M4 muscarinic receptor; [3]) [nM] | Emax (M4 muscarinic receptor; [4]) [%] | Emax (M1 muscarinic receptor; [5]) [%] | M1 Activity (M1 muscarinic receptor; Table 4) | Emax (M4 muscarinic receptor; [5]) [%] | M4 Activity (M4 muscarinic receptor; Table 4)
CCOC(=O)N1CCC(N2CCC3(CC2)CN(C(=O)O[C@H]2CCOC2)c2ccc(F)cc23)CC1 [compound 428] | 100 to 1000 | < 65 | > 1000 | < 65 |  |  |  | 
Fc1ccc2c(c1)C1(CCN(C[C@@H]3C[C@H]4CC[C@H]3O4)CC1)CN2 [compound 429] | 100 to 1000 | < 65 | > 1000 | < 65 |  |  |  | 
CCOC(=O)N1CCC(N2CCC3(CC2)C[C@@H](NC(C)=O)c2ccccc23)CC1 [compound 430] | 100 to 1000 | < 65 | > 1000 | < 65 |  |  |  | 
CCOC(=O)N1CCC(N2CCC3(CC2)CN(C(C)=O)c2c(F)ccc(F)c23)CC1 [compound 431] |  |  |  |  | 25 to 100 | xx (activity was measured to be between 2.0 μM and 5.0 μM) | 25 to 100 | xx (activity was measured to be between 2.0 μM and 5.0 μM)
CC(C)C(=O)N[C@@H]1CC2(CCN(C[C@H]3C[C@H]4CC[C@H]3C4)CC2)c2ccccc21 [compound 432] |  |  |  |  | < 25 | x (activity was measured to be greater than 5.0 μM) | < 25 | x (activity was measured to be greater than 5.0 μM)
CCOC(=O)N1CCC(N2CCC3(CC2)CN(C(=O)Nc2ccccc2)c2ccccc23)CC1 [compound 433] |  |  |  |  | > 100 | xxx (activity was measured to be less than 2.0 μM) | 25 to 100 | xxx (activity was measured to be less than 2.0 μM)
CCOC(=O)N1CCC(N2CCC3(CC2)CN(C(C)=O)c2c(-c4ccc(OC)cc4)cccc23)CC1 [compound 434] |  |  |  |  | 25 to 100 | x (activity was measured to be greater than 5.0 μM) | 25 to 100 | xxx (activity was measured to be less than 2.0 μM)
CN(C)C(=O)N1CC2(CCN(C3CCN(C(=O)c4ccco4)CC3)CC2)c2cc(F)ccc21 [compound 435] |  |  |  |  | 25 to 100 | xxx (activity was measured to be less than 2.0 μM) | 25 to 100 | xxx (activity was measured to be less than 2.0 μM)
CC(=O)N[C@H]1CC2(CCN(C3CCN(C)CC3C)CC2)c2ccccc21 (stereo partly drawn) [compound 436] |  |  |  |  | < 25 | x (activity was measured to be greater than 5.0 μM) | < 25 | x (activity was measured to be greater than 5.0 μM)
CC(=O)N[C@@H]1CC2(CCN(C3CCOCC3)CC2)c2ccccc21 [compound 437] |  |  |  |  | < 25 | x (activity was measured to be greater than 5.0 μM) | < 25 | x (activity was measured to be greater than 5.0 μM)
CN(C)C(=O)N[C@H]1CC2(CCN(C[C@@H]3C[C@H]4C=C[C@H]3C4)CC2)c2ccccc21 [compound 438] |  |  |  |  | 25 to 100 | xxx (activity was measured to be less than 2.0 μM) | < 25 | xxx (activity was measured to be less than 2.0 μM)
CC(=O)N1CC2(CCN(C3CC4CCC(C3)N4C(=O)OCC3CC3)CC2)c2ccccc21 (stereo not drawn) [compound 439] |  |  |  |  | 25 to 100 | xxx (activity was measured to be less than 2.0 μM) | 25 to 100 | xxx (activity was measured to be less than 2.0 μM)
CC(=O)N1CC2(CCN(C3CCN(C(=O)OC(C)C)CC3)CC2)c2ccccc21 [compound 440] |  |  |  |  | 25 to 100 | xxx (activity was measured to be less than 2.0 μM) | 25 to 100 | xxx (activity was measured to be less than 2.0 μM)
CC(=O)N1CC2(CCN(C3CCN(C(C)C)CC3)CC2)c2cc(F)ccc21 [compound 441] |  |  |  |  | < 25 | x (activity was measured to be greater than 5.0 μM) | < 25 | x (activity was measured to be greater than 5.0 μM)
COc1cc2c(cc1OC)C1(CCN(C3CCCCCC3)CC1)C[C@@H]2NC(C)=O [compound 442] |  |  |  |  | < 25 | x (activity was measured to be greater than 5.0 μM) | < 25 | x (activity was measured to be greater than 5.0 μM)
C#CCOC(=O)N1CC[C@H](CN2CCC3(CC2)CN(C(=O)N(C)C)c2ccc(F)cc23)C1 [compound 443] |  |  |  |  | > 100 | xxx (activity was measured to be less than 2.0 μM) | > 100 | xxx (activity was measured to be less than 2.0 μM)
CCOC(=O)N1C2CCC1CC(N1CCC3(CC1)CN(C(C)=O)c1c(C)cccc13)C2 (stereo not drawn) [compound 444] |  |  |  |  | 25 to 100 | xx (activity was measured to be between 2.0 μM and 5.0 μM) | 25 to 100 | xx (activity was measured to be between 2.0 μM and 5.0 μM)
CC#CCOC(=O)N1CC[C@H](CN2CCC3(CC2)CN(C(C)=O)c2cccc(C)c23)C1 [compound 445] |  |  |  |  | 25 to 100 | xxx (activity was measured to be less than 2.0 μM) | 25 to 100 | xxx (activity was measured to be less than 2.0 μM)
COc1ccccc1C(=O)N1CCC(N2CCC3(CC2)CN(C(=O)N(C)C)c2ccc(F)cc23)CC1 [compound 446] |  |  |  |  | 25 to 100 | x (activity was measured to be greater than 5.0 μM) | < 25 | x (activity was measured to be greater than 5.0 μM)
CC(=O)N[C@H]1CCC2(CCN(C[C@@H]3C[C@H]4C=C[C@H]3C4)CC2)c2ccccc21 [compound 447] |  |  |  |  | 25 to 100 | xxx (activity was measured to be less than 2.0 μM) | 25 to 100 | xxx (activity was measured to be less than 2.0 μM)
O=C(N[C@H]1CC2(CCN(CC3CCCCC3)CC2)c2ccccc21)C1CCCC1 [compound 448] |  |  |  |  | < 25 | x (activity was measured to be greater than 5.0 μM) | < 25 | xxx (activity was measured to be less than 2.0 μM)
C1=CC2CC1CC2CN1CCC2(CCCc3ccccc32)CC1 (stereo not drawn) [compound 449] |  |  |  |  | 25 to 100 | xx (activity was measured to be between 2.0 μM and 5.0 μM) | 25 to 100 | xxx (activity was measured to be less than 2.0 μM)
CCOC(=O)N1CCC(N2CCC3(CC2)CN(C(C)=O)c2cccc(C)c23)CC1 [compound 450] |  |  |  |  | 25 to 100 | xxx (activity was measured to be less than 2.0 μM) | < 25 | x (activity was measured to be greater than 5.0 μM)
Cc1nsc(N2CC3(CCN(C4CC5CCC(C4)N5c4nc(C)ns4)CC3)c3ccccc32)n1 (stereo not drawn) [compound 451] |  |  |  |  | 25 to 100 | xxx (activity was measured to be less than 2.0 μM) | 25 to 100 | xxx (activity was measured to be less than 2.0 μM)

From patent US7786141B2 (Vertex Pharmaceuticals Incorporated, priority 2004, dated 2010)
